Test results reported in patent publication US20260335223A1, “Topical Copolymer Formulations for Hydrophobic Drug Delivery” (1376683 B.C. LTD, priority 2023, published 2026).
≈ marks a conversion by molar mass, not a printed value.

Assays:
[1] = Limit of aqueous solubility with/without PCL25 (HPLC or UV/VIS); assay type: physicochemical; details: water
Experimental: Aqueous solubility studies involving diblock copolymer PCL25 (63:37 MePEG:PCL MW 7900 Da) were carried out as follows. 1 mg of drug (either paclitaxel, capsaicin or curcumin) was added to glass vials, designated as either “control” or “diblock copolymer”. Diblock copolymer was omitted from control vials and 100 mg PCL25 was added to diblock copolymer vials. The contents of all vials were then dissolved in 300 microlitres of acetonitrile. The contents were dried at 60 °C for two hours and then 1 mL of warm water (40 °C) was added with vortexing for five minutes. To determine the limit of drug solubility, the contents of each vial were then placed in a microcentrifuge tube and centrifuged at 14000×g for 3 minutes to sediment any undissolved solids. The supernatant was diluted 50% in acetonitrile and the drug was quantitated by HPLC for paclitaxel and capsaicin or by UV/VIS spectrometry (420 nm) for curcumin after 100 fold dilution in acetonitrile for this drug. HPLC conditions were detection at 228 nm for both drugs and a mobile phase of 60:40 (paclitaxel) or 50:50 (capsaicin) acetonitrile:water flowing at 1 mL/min. Calibration standard for all drugs were run in acetonitrile.

[2] = Preparation of homogenous aqueous carboxymethyl cellulose (CMC) gel; assay type: physicochemical
Description: This Example illustrates that DBC3333 allowed for CBD, CBN, finasteride and docetaxel to be prepared within aqueous carboxymethyl cellulose (CMC) gels for topical use. […]

[3] = Skin permeation, Franz diffusion cell; details: 3 hours
Description: To collect the data illustrated in this Example, fresh pig skin is placed on a Franz diffusion cell and the formulation of interest is applied to the outer skin surface. After three hours the cell is dismantled and the exposed circular area excised. […] The amount of drug in each section is then quantitated and expressed at mass of drug/gram of tissue.
For cannabinoid aqueous gel preparation for skin permeation study and therapeutic efficacy studies, a water-based gel comprised of water, phenoxyethanol, ethylhexyl glycerin, acrylates/C10-30 alkyl acrylate crosspolymer, sodium hydroxide and allantoin, was used as the gel base. Gel base and diblock copolymer were weighed, mixed together and heated using a microwave for 4 seconds. A homogenous gel containing diblock copolymer was achieved via levigation of the mixture. Gel base without diblock copolymer was weighed and used for the control formula. Commercial cannabinoid-containing extracts containing known quantities of cannabinoid were weighed and dissolved in a pre-weighed amount of cacao butter over 45 °C heat. The cacao butter cannabinoid mixture was then weighed and incorporated into the gel base, with or without diblock copolymer, via levigation to produce the final gel samples. Cannabinoid content of the final gel samples was analyzed using HPLC. […] Gel samples were stored in air-tight containers at 4 °C until the time of use.
For carboxymethyl cellulose (CMC) gel and Glaxal® base preparation for skin permeation study of cannabidiol (CBD), curcumin, capsaicin and finasteride, CMC gel was made using medium viscosity CMC as a 2% w/v aqueous solution following overnight stirring. […] For CMC preparations containing DBC, DBC was weighed into a glass vial and a small volume of the drug of interest in acetonitrile:methanol (50:50) was added to dissolve all. The solution was then dried for 2 hours in a warm oven (50 °C). In all cases the ratio of DBC:drug was 95:5. A known weight of CMC gel was then added to the warmed vial containing the dried DBC/drug mixture and vortexed to disperse and dissolve all drug. Glaxal® base was used as received. Glaxal® base containing drug was prepared by first weighing drug and dissolving in a known volume of ethanol or methanol. The ethanol or methanol drug solution was then added to a weighed amount of Glaxal® base followed by levigation of the mixture. For CBD, capsaicin, docetaxel and finasteride, it was not possible to prepare CMC gels without the use of DBC, due to drug insolubility. Therefore Glaxal® base preparations containing these drugs were employed as DBC-free comparison groups (control) for skin permeation studies.
For carboxymethyl cellulose (CMC) gel and Glaxal® base preparation for skin permeation study of docetaxel, 2% CMC gel was prepared as described above. Docetaxel (DTX) 6 mg was weighed into 190 μL of acetonitrile and 10 μL of 3H radiolabeled DTX was added. Then 66 μL (i.e., 2 mg of drug) was pipetted into a vial with 40 mg of DBC to dissolve all. The contents were dried down and 1 mL of warm 2% CMC gel was added with vortexing to dissolve all DBC and drug as a micellar solution. For Glaxal® paste 66 μL of the drug solution was dried down to approximately 20 μL and 1 gram of Glaxal® base added to disperse the drug.
Fresh pig skin was obtained from a butcher and defatted to 5 mm thickness and shaved. 2 cm^2 pieces were cut with scissors and placed on Franz diffusion cells filled with PBS and clamped. 100 mg of each formulation was weighed and placed on top of the tissue and capped. The cells were placed in a 37 °C humid incubator for three hours and then dismantled. The tissue was washed three times with PBS and the centre drug-loaded circle of tissue was cut out with scissors and snap frozen. Tissues were sectioned by cryosectioning into 50 μm cuts pooled into groups of five.

osteoarthritis = test: Therapeutic efficacy case reports, osteoarthritis (VAS pain); assay type: in vivo, human
Experimental: (§1) In all cases, therapeutic efficacy studies were carried out with volunteer participants under the supervision of a healthcare practitioner. In all cases, informed consent was obtained. Participants were blinded to the DBC content of the gel samples provided. Participants were offered samples of control cannabinoid gel (no DBC) and asked to apply to the affected area twice daily and as needed for one week. Participants were told to maintain adherence to any prescribed medications while using the cannabinoid gel. Participants were contacted immediately after the one week treatment period for assessment. Following a washout period ranging from 4 to 12 weeks, participants were offered samples of DBC cannabinoid gel and asked to apply in the same manner, twice daily and as needed for one week, while maintaining adherence to any prescribed medications. Participants were contacted immediately after the one week treatment period for assessment. Efficacy was assessed using average daily 10-point visual analogue scale (VAS) pain score prior to beginning treatment and immediately after treatment. Participants were also asked to report all adverse effects experienced, if any, such as skin irritation, skin rash, localized or diffuse discomfort or pain, dizziness, fatigue, impaired concentration, feelings of euphoria or dysphoria, or other psychotropic effects.

[4] = background statement; cited from earlier work
[5] = Aqueous solubility with/without diblock copolymer (visual, film rehydration)
Experimental: In these studies the cannabinoid and diblock copolymer are dissolved in ethanol and dried to a film. Warm water is added and solubility is assessed by an optically clear solution or via HPLC or UV/Vis spectrophotometry.
Specific methodologies for aqueous solubility studies were as follows. Drug solutions having a concentration of 10 mg/mL were prepared by weighing drug and dissolving in an appropriate amount of ethanol in glass vials. Control drug samples (no diblock copolymer) were prepared by measuring 1 mL of room temperature distilled water in a glass vial and adding an appropriate volume of 10 mg/mL ethanol drug solution, followed by gentle mixing.
Drug samples with diblock copolymer (60:40 MePEG: PLLA, MW 3333 Da “DBC3333”; 57:43 MePEG:PCL, MW 1320 Da “[COMPOUND LEFT OUT]”; 40:60 MePEG:PCL, MW 1890 Da “PCL10”; 30:70 MePEG:PCL, MW 12000 Da “PCL61”) were prepared by weighing diblock copolymer into glass vials then adding 800 microlitres ethanol followed by an appropriate volume of 10 mg/mL ethanol drug solution. The diblock copolymer was dissolved in the ethanol solution via gentle mixing and the solvent was then evaporated via warm oven heating at approximately 50 °C. Once completely dry, 1 ml distilled water was added to the vials followed by gentle mixing. All vials were capped and left at room temperature for 12 hours, at which time the vials were photographed for evidence of precipitation.

[6] = Curcumin release from PVA film; assay type: physicochemical; details: for Curcumin released from PVA film: by 2 hours
Experimental: The 88% hydrolyzed version of PVA was used with a molecular weight of between 100000 and 150000 daltons. PVA was dissolved in water at 10% w/v by heating to 90 °C for one hour and then cooled. Separately, 40 mg of diblock copolymer DBC3333 was weighed into a glass vial and 100 μL of curcumin solution (10 mg/mL in ethanol) was added to 2 mL of the 10% PVA solution with mixing to give the non diblock casting solutions. Alternatively, 100 μL of the curcumin solution was added to 40 mg of diblock copolymer to dissolve it and then this was mixed with 2 mL of PVA solution. These give PVA films containing 20% diblock with approximately 0.5% curcumin (1 mg curcumin per film). The films were cast in small petri dishes and air dried at 37 °C for 4 hours.
This observational solubilization experiment added 2 mL of water to the film at t=0 and then at 5, 10, 25 mins the liquid was removed into a test tube for observation.
A second set of the same films were prepared and used for a drug release experiment whereby 10 mL of PBS (10 mM pH 7.4) was added to the films and at specified time points, 100 μL of solution was collected and added to 400 μL of water. The absorbance of these solutions was then measured at 420 nm by uv/vis absorbance.

rheumatoid arthritis = test: Therapeutic efficacy case report, rheumatoid arthritis (VAS pain); assay type: in vivo, human
Experimental: as §1

[7] = with diblock copolymer PCL25 100 mg/mL
[8] = topical, with DBC3333 vs formulation without
[9] = control, no diblock copolymer, drug 300 μg/mL
[10] = with DBC3333 50 mg/mL, drug 300 μg/mL
[11] = with DBC3333 50 mg/mL, drug 600 μg/mL
[12] = with DBC3333 50 mg/mL, drug 1000 μg/mL
[13] = with DBC3333 50 mg/mL, drug 2000 μg/mL
[14] = with DBC3333 50 mg/mL, drug 3000 μg/mL
[15] = control, no diblock copolymer, drug 1 μg/mL
[16] = control, no diblock copolymer, drug 10 μg/mL
[17] = control, no diblock copolymer, drug 100 μg/mL
[18] = control, no diblock copolymer, drug 250 μg/mL
[19] = control, no diblock copolymer, drug 500 μg/mL
[20] = control, no diblock copolymer, drug 1000 μg/mL
[21] = diblock 0 mg/ml, drug 0.5 mg/ml
[22] = diblock (name withheld) 50 mg/ml, drug 1 mg/ml
[23] = diblock (name withheld) 50 mg/ml, drug 2 mg/ml
[24] = diblock (name withheld) 50 mg/ml, drug 3 mg/ml
[25] = diblock (name withheld) 50 mg/ml, drug 4 mg/ml
[26] = with DBC3333 20 mg/mL, drug 250 μg/mL
[27] = with DBC3333 20 mg/mL, drug 500 μg/mL
[28] = with DBC3333 20 mg/mL, drug 1000 μg/mL
[29] = with DBC3333 20 mg/mL, drug 2000 μg/mL
[30] = with DBC3333 20 mg/mL, drug 3000 μg/mL
[31] = control, no diblock copolymer, drug 600 μg/mL

Compound: COc1cc(CNC(=O)CCCC/C=C/C(C)C)ccc1O [Capsaicin, capsaicin]
- Solubility ([1]; control, no diblock copolymer): 10 µg/mL (≈ 32.7 µM)
- Solubility [1, 7]: 506 µg/mL (≈ 1660 µM)
- Preparation of homogenous CMC gel ([2]; with PCL25): allowed
- Preparation of homogenous CMC gel ([2]; without diblock copolymer): not possible to prepare homogenous CMC gel preparations
- Skin permeation ([3]; CMC gel with PCL25 vs identical capsaicin content in Glaxal base): enhanced skin permeation

Compound: CC(=O)Nc1ccc(O)cc1 [acetaminophen]
- Participant's description of efficacy/pain (osteoarthritis; Case 1): little to no pain relief or prevention of pain during or after exercise

Compound: CCCCCc1cc(O)c2c(c1)OC(C)(C)c1ccc(C)cc1-2 [CBN, cannabinol]
- Preparation of homogenous CMC gel ([2]; with DBC3333): allowed
- Preparation of homogenous CMC gel ([2]; without diblock copolymer): not possible to prepare homogenous CMC gel preparations
- Water solubility [4]: ~1 µg/mL
- Skin permeation [3, 8]: enhanced skin permeation

Compound: CCCCCc1cc(O)c(C/C=C(\C)CCC=C(C)C)c(O)c1 [CBG, cannabigerol]
- Water solubility [4]: ~1 µg/mL
- Aqueous solubility [5, 9]: Insol.
- Aqueous solubility [5, 10]: Soluble
- Aqueous solubility [5, 11]: Soluble
- Aqueous solubility [5, 12]: Soluble
- Aqueous solubility [5, 13]: Partially
- Aqueous solubility [5, 14]: Insol.

Compound: CC(=O)O[C@H]1C(=O)[C@@]2(C)[C@H]([C@H](OC(=O)c3ccccc3)[C@]3(O)C[C@H](OC(=O)[C@H](O)[C@@H](NC(=O)c4ccccc4)c4ccccc4)C(C)=C1C3(C)C)[C@]1(OC(C)=O)CO[C@@H]1C[C@@H]2O [Paclitaxel, paclitaxel]
- Solubility ([1]; control, no diblock copolymer): 2 µg/mL (≈ 2.34 µM)
- Solubility [1, 7]: 488 µg/mL (≈ 571 µM)

Compound: COc1cc(/C=C/C(=O)CC(=O)/C=C/c2ccc(O)c(OC)c2)ccc1O [Curcumin, curcumin]
- Solubility ([1]; control, no diblock copolymer): < 1 µg/mL
- Solubility [1, 7]: 1000 µg/mL (≈ 2710 µM)
- Curcumin release rate from PVA film ([6]; DBC3333 20% w/w to PVA vs no diblock): much faster
- Curcumin released from PVA film ([6]; DBC3333 20% w/w to PVA): all drug released
- Yellow colour in dish (observational solubilization) ([6]; diblock containing film vs no diblock film): markedly stronger
- Curcumin released from PVA film ([6]; no diblock copolymer, room temperature): 6%
- Skin permeation [3, 8]: enhanced skin permeation

Compound: CCCCCc1cc(O)c2c(c1)OC(C)(C)[C@@H]1CCC(C)=C[C@@H]21 [THC, tetrahydrocannabinol]
- Water solubility [4]: ~1 µg/mL
- Skin permeation [3, 8]: enhanced skin permeation
- Aqueous solubility [5, 15]: Insol.
- Aqueous solubility [5, 16]: Insol.
- Aqueous solubility [5, 17]: Insol.
- Aqueous solubility [5, 18]: Insol.
- Aqueous solubility [5, 19]: Insol.
- Aqueous solubility [5, 20]: Insol.
- Aqueous solubility ([5]; control, no diblock copolymer, drug 2000 μg/mL): Insol.
- Solubility [5, 21]: Insol.
- Solubility ([5]; diblock 0 mg/ml, drug 1 mg/ml): Insol.
- Solubility [5, 22]: soluble
- Solubility [5, 23]: soluble
- Solubility [5, 24]: soluble
- Solubility [5, 25]: Soluble
- Aqueous solubility [5, 26]: Soluble
- Aqueous solubility [5, 27]: Soluble
- Aqueous solubility [5, 28]: Partially
- Aqueous solubility [5, 29]: Insol.
- Aqueous solubility [5, 30]: Insol.
- Aqueous solubility ([5]; with DBC3333 50 mg/mL, drug 500 μg/mL): Soluble
- Aqueous solubility [5, 12]: Soluble
- Aqueous solubility [5, 13]: Soluble
- Aqueous solubility [5, 14]: Partially
- Aqueous solubility ([5]; with DBC3333 50 mg/mL, drug 4000 μg/mL): Insol.

Compound: C=C(C)[C@@H]1CCC(C)=C[C@H]1c1c(O)cc(CCCCC)cc1O [CBD, cannabidiol]
- Preparation of homogenous CMC gel ([2]; with DBC3333): allowed
- Preparation of homogenous CMC gel ([2]; with diblock copolymer (name withheld)): allowed
- Preparation of homogenous CMC gel ([2]; without diblock copolymer): not possible to prepare homogenous CMC gel preparations
- Water solubility [4]: ~1 µg/mL
- Skin permeation ([3]; CMC gel with diblock copolymer (name withheld) vs identical CBD content in Glaxal base): enhanced skin permeation
- Skin permeation [3, 8]: enhanced skin permeation
- Aqueous solubility [5, 9]: Insol.
- Aqueous solubility [5, 31]: Insol.
- Aqueous solubility [5, 20]: Insol.
- Solubility [5, 21]: Insol.
- Solubility ([5]; diblock 0 mg/ml, drug 1 mg/ml): Insol.
- Solubility [5, 22]: soluble
- Solubility [5, 23]: soluble
- Solubility [5, 24]: Partially
- Solubility [5, 25]: Insol.
- Aqueous solubility [5, 10]: Soluble
- Aqueous solubility [5, 11]: Soluble
- Aqueous solubility [5, 12]: Soluble
- Aqueous solubility [5, 13]: Partially
- Aqueous solubility [5, 14]: Insol.

Compound: CC(C)(C)NC(=O)[C@H]1CC[C@H]2[C@@H]3CC[C@H]4NC(=O)C=C[C@]4(C)[C@H]3CC[C@]12C [finasteride]
- Preparation of homogenous CMC gel ([2]; with DBC3333): allowed
- Preparation of homogenous CMC gel ([2]; without diblock copolymer): not possible to prepare homogenous CMC gel preparations
- Skin permeation [3, 8]: enhanced skin permeation
- Aqueous solubility [5, 9]: Insol.
- Aqueous solubility [5, 31]: Insol.
- Aqueous solubility [5, 20]: Insol.
- Aqueous solubility [5, 10]: Soluble
- Aqueous solubility [5, 11]: Partially
- Aqueous solubility [5, 12]: Insol.
- Aqueous solubility [5, 13]: Insol.
- Aqueous solubility [5, 14]: Insol.

Compound: CC(=O)O[C@@]12CO[C@@H]1C[C@H](O)[C@@]1(C)C(=O)[C@H](O)C3=C(C)[C@@H](OC(=O)[C@H](O)[C@@H](NC(=O)OC(C)(C)C)c4ccccc4)C[C@@](O)([C@@H](OC(=O)c4ccccc4)[C@H]21)C3(C)C [docetaxel]
- Preparation of homogenous CMC gel ([2]; with DBC3333): allowed
- Preparation of homogenous CMC gel ([2]; without diblock copolymer): not possible to prepare homogenous CMC gel preparations
- Skin permeation [3, 8]: enhanced skin permeation

Compound: CCCCCc1cc(O)c2c(c1)OC(C)(CCC=C(C)C)C=C2 (centres unmarked) [CBC, cannabichromene]
- Water solubility [4]: ~1 µg/mL

Compound: CCCCCc1cc2c(c(O)c1C(=O)O)[C@@H]1C=C(C)CC[C@H]1C(C)(C)O2 [THCA, tetrahydrocannabinolic acid]
- Skin permeation [3, 8]: enhanced skin permeation
- Aqueous solubility [5, 15]: Soluble
- Aqueous solubility [5, 16]: Insol.
- Aqueous solubility [5, 17]: Insol.
- Aqueous solubility [5, 18]: Insol.
- Aqueous solubility [5, 19]: Insol.
- Aqueous solubility [5, 20]: Insol.
- Solubility [5, 21]: Insol.
- Solubility ([5]; diblock 0 mg/ml, drug 1 mg/ml): Insol.
- Solubility [5, 22]: soluble
- Solubility [5, 23]: soluble
- Solubility [5, 24]: soluble
- Solubility [5, 25]: Soluble
- Aqueous solubility [5, 26]: Soluble
- Aqueous solubility [5, 27]: Soluble
- Aqueous solubility [5, 28]: Soluble
- Aqueous solubility [5, 29]: Partially
- Aqueous solubility [5, 30]: Insol.

Compound: CC(C)Cc1ccc(C(C)C(=O)O)cc1 (centres unmarked) [ibuprofen]
- VAS pain level after as-needed medication (osteoarthritis; Case 1, history, used when pain level reaches 4): 3
- Participant's description of efficacy (rheumatoid arthritis; Case 4): mildly effective
- VAS pain level after ibuprofen 400 mg (rheumatoid arthritis; Case 4, history, from 4): 3
